Reference: the supplement of paper PMC10307832

Experiments:
Experiment in all cases: relative viability (nuclei count vs DMSO), 5 days (fraction); higher = more cells survive
Daporinad + Luminespib = compound: O=C(/C=C/c1cccnc1)NCCCCC1CCN(C(=O)c2ccccc2)CC1 [Daporinad] + CCNC(=O)c1noc(-c2cc(C(C)C)c(O)cc2O)c1-c1ccc(CN2CCOCC2)cc1 [Luminespib] (partner 0.01 µM)
Procedure, shortened: (§1)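 After 5 days of treatment, lung cancer cells in 1536-well plates were fixed and stained in a single step (final 0.05% Triton X-100, 1% formaldehyde, 1 ug/ml Hoechst) and their nuclei counted on 4× images. Treatment had been applied by pin tool the day after seeding as one drug alone or as a fixed anchor-drug dose with five library-drug doses (not always all listed) in √10 steps. Relative viability is the nuclei count of treated wells divided by that of vehicle wells, and values are medians of duplicate plates.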

R406 + Phenformin = compound: COc1cc(Nc2ncc(F)c(Nc3ccc4c(n3)NC(=O)C(C)(C)O4)n2)cc(OC)c1OC [R406] + N=C(N)NC(=N)NCCc1ccccc1 [Phenformin] (partner 250 µM)
Procedure, shortened: as §1

R406 + OSI-027 = compound: COc1cc(Nc2ncc(F)c(Nc3ccc4c(n3)NC(=O)C(C)(C)O4)n2)cc(OC)c1OC [R406] + COc1cccc2cc(-c3nc([C@H]4CC[C@H](C(=O)O)CC4)n4ncnc(N)c34)[nH]c12 [OSI-027] (partner 0.5 µM)
Procedure, shortened: as §1

R406 + Linsitinib = compound: COc1cc(Nc2ncc(F)c(Nc3ccc4c(n3)NC(=O)C(C)(C)O4)n2)cc(OC)c1OC [R406] + C[C@]1(O)C[C@@H](c2nc(-c3ccc4ccc(-c5ccccc5)nc4c3)c3c(N)nccn32)C1 [Linsitinib] (partner 1 µM)
Procedure, shortened: as §1

Cell Line	relative viability (Daporinad + Luminespib; first compound 0.0005 µM)	relative viability (Daporinad + Luminespib; first compound 0.001581 µM)	relative viability (Daporinad + Luminespib; first compound 0.005 µM)	relative viability (Daporinad + Luminespib; first compound 0.01581 µM)	relative viability (R406 + Phenformin; first compound 0.08 µM)	relative viability (R406 + Phenformin; first compound 0.253 µM)	relative viability (R406 + Phenformin; first compound 0.8 µM)	relative viability (R406 + Phenformin; first compound 2.53 µM)	relative viability (R406 + Phenformin; first compound 8 µM)	relative viability (R406 + OSI-027; first compound 0.08 µM)	relative viability (R406 + OSI-027; first compound 0.253 µM)	relative viability (R406 + OSI-027; first compound 0.8 µM)	relative viability (R406 + OSI-027; first compound 2.53 µM)	relative viability (R406 + OSI-027; first compound 8 µM)	relative viability (R406 + Linsitinib; first compound 0.08 µM)	relative viability (R406 + Linsitinib; first compound 0.253 µM)	relative viability (R406 + Linsitinib; first compound 0.8 µM)	relative viability (R406 + Linsitinib; first compound 2.53 µM)	relative viability (R406 + Linsitinib; first compound 8 µM)
HCC-44	1.07	1.12	0.942	1.28	0.15	0.22	0.196	0.18	0.127	0.435	0.662	0.599	0.293	0.363	0.62	0.729	0.758	0.688	0.305
HCC-827	0.639	0.747	0.704	0.732	0.436	0.401	0.439	0.265	0.215	0.771	0.778	0.826	0.611	0.507	0.975	0.929	0.937	0.886	0.477
NCI-H2342	0.668	0.786	0.707	0.631	0.66	0.623	0.649	0.525	0.535	0.536	0.569	0.653	0.61	0.513					
NCI-H2347	0.607	0.43	0.322	0.431	0.493	0.417	0.43	0.26	0.235	0.381	0.436	0.479	0.278	0.253	0.928	1.01	1.06	0.848	0.71
PC-3 [JPC-3]	0.68	0.677	0.73	0.735	0.466	0.515	0.526	0.413	0.377	0.854	0.872	0.932	0.494	0.427	0.981	0.977	1.01	1	0.791
NCI-H1651	0.829	0.676	0.805	0.67	0.455	0.377	0.465	0.252	0.134	0.632	0.749	0.804	0.621	0.286	0.862	1.1	1.06	0.829	0.5
HARA	0.761	0.621	0.837	0.175	0.386	0.508	0.548	0.377	0.324	0.621	0.668	0.591	0.22	0.198	0.772	0.991	1.04	0.819	0.288
NCI-H1650	0.187	0.182	0.182	0.196	0.438	0.497	0.508	0.154	0.146	0.719	0.644	0.637	0.132	0.137					
NCI-H1395	0.774	0.657	0.722	0.782	0.432	0.463	0.482	0.394	0.345	0.592	0.73	0.754	0.429	0.424	1.02	1.26	1.18	0.866	0.727
NCI-H441	0.36	0.324	0.367	0.343	0.829	0.872	1.05	0.44	0.309	0.528	0.683	0.574	0.255	0.408	0.377	0.609	0.662	0.411	0.47
LU99A	0.229	0.227	0.286	0.223	0.789	0.99	0.95	0.556	0.759	0.322	0.283	0.308	0.253	0.276	0.518	0.499	0.572		0.197
NCI-H1355	0.79	0.793	0.752	0.81	0.474	0.472	0.472	0.197	0.28	0.474	0.404	0.456	0.163	0.189	0.83	0.83	0.94	0.588	0.596
HCC-78					0.544	0.751	0.842	0.611	0.392	0.335	0.385	0.397	0.386	0.323	0.534	0.394	0.544	0.489	0.25
NCI-H1563	0.535	0.582	0.493	0.485	0.662	0.664	0.682	0.511	0.445	0.736	0.734	0.831	0.638	0.543	1.12	1.31	1.29	1.2	1.16
HCC-15	0.309	0.446	0.372	0.329	0.467	0.606	0.595	0.445	0.234	0.701	0.928	0.832	0.505	0.439	0.856	0.914	1.01		0.776
EKVX	0.889	0.933	0.839	0.922	0.23	0.254	0.245	0.208	0.178	0.721	0.739	0.778	0.601	0.552	1.05	1.32	1.19	0.9	0.688
NCI-H2087	0.178	0.177	0.154	0.159	0.487	0.569	0.556		0.406	0.44	0.597	0.658		0.499	1.29	1.04	0.914	1.03	0.709
LK-2	0.181	0.213	0.176	0.147	0.385	0.807	0.428	0.181	0.105	0.218	0.215	0.186	0.149	0.146	0.513	0.573	0.641	0.379	0.11
